Assay results taken from patent publication US20060135403A1, “Therapeutic formulations for the treatment of beta-amyloid related diseases” (priority 2002, published 2006).
Counter-ions that a name gives are not always drawn. Like-named read-outs stand apart in the source and are kept apart here.

Experiments:
[1] = biological target: T1, Aβ1-40 (Homo sapiens, UniProt P05067); experiment: Mass spectroscopy (MS) binding assay; parameters: key: “+++” indicates strong binding; “++” indicates moderate binding; “+” indicates weak binding; “−” indicates no detectable binding; conditions: 200 μM test compound, 20 μM solubilized Aβ40, 20% ethanol, pH 7.4
T1 construct: 20 μM of solubilized Aβ40
Method: Test compounds were purchased from commercial sources or synthesized and screened by mass spectroscopy (“MS”) assays. The MS assay gives data on the ability of compounds to bind to an amyloid.
In the mass spectroscopy (“MS”) assay, samples were prepared as aqueous solutions containing 20% ethanol, 200 μM of a test compound and 20 μM of solubilized Aβ40. The pH value of each sample was adjusted to 7.4 (±0.2) by addition of 0.1% aqueous sodium hydroxide. The solutions were then analyzed by electrospray ionization mass spectroscopy using a Waters ZQ 4000 mass spectrometer. Samples were introduced by direct infusion at a flow-rate of […] within 2 hours after sample preparation. The source temperature was kept at 70° C. and the cone voltage was 20 V for all the analysis. Data were processed using Masslynx 3.5 software. The MS assay gives data on the ability of compounds to bind to Aβ, whereas the ThT, EM and CD assays give data on inhibition of fibrillogenesis. “+++” indicates strong binding; “++” indicates moderate binding; “+” indicates weak binding; “−” indicates no detectable binding; and entries left blank were not determined.

[2] = tested on: Aβ; conditions: cited from earlier work
Target sequence in this assay (P05067 672-711 limits assumed): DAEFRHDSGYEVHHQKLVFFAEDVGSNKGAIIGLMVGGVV

[3] = tested on: Aβ; conditions: PDAPP, cited from earlier work
[4] = tested on: Aβ; conditions: cited from earlier work; remark: listed apart in the source
[5] = tested on: Aβ; conditions: TgCRND8, IP; cited from earlier work
[6] = biological target: T2, Aβ (Homo sapiens, UniProt P05067); conditions: TgAPPswe, IP; cited from earlier work
T2 construct: the amyloid-β peptide (Aβ), a 39-43 amino acid protein that is produced through cleavage of the β-amyloid precursor protein (APP); host or cells: brains of transgenic mice (PDAPP, Tg2576, Tg2576+PS1, TgCRND8, TgAPPswe)

T1 sequence (P05067 672-711 limits assumed): as above

Molecule	MS Binding Aβ1-40 [1]	also measured
C[n+]1cccc(C(=O)NCCCS(=O)(=O)[O-])c1 [AN, 3-((N-methylnicotlnoyl)amino)-1-propanesulfonic acid, inner salt]	−	
COc1ccc(CNCCCS(=O)(=O)O)c(OC)c1 [BB, 3-(2,4-dimethoxybenzylamino)-1-propanesulfonic acid]	+++	
COc1cc(CNCCCS(=O)(=O)O)cc(OC)c1 [BA, 3-(3,5-dimethoxybenzylamino)-1-propanesulfonic acid]	+++	
O=C(NCCCS(=O)(=O)O)NC(c1ccccc1)c1ccccc1 [AF, 3-{[(benzhydrylamino)carbonyl]amino}-1-propanesulfanic acid]	+	
Cholyl-LVFFA-OH		anti-fibrillogenic activity [2]: can act as an anti-fibrillogenic agent
O=S(=O)(O)CCCNCCc1c[nH]c2ccccc12 [BT, 3-{[2-(3-indolyl)ethyl]-amino}-1-propanesulfonic acid]	+++	
O=C(NCCCS(=O)(=O)[O-])OCc1ccccc1.[Na+] [AE, N-benzyloxycarbonyl-3-amino-1-propanesulfonic acid sodium salt monohydrate]	+	
O=S(=O)([O-])CCCC[n+]1ccc(C2CC=CCC2)cc1 (centres unmarked) [T, 4-(4-cyclohex-3-enylpyridyl) butanesulfonic acid, inner salt]	+	
O=S(=O)(O)CCCNC1CC2CCC1C2 (centres unmarked) [BY, 3-(2-norbornyl)amino-1-propanesulfonic acid]	+++	
N=C(N)SCCCS(=O)(=O)O [CP, 3-(amidinothio)-1-propanesulfonic acid]	+	
O=C(NCCCCS(=O)(=O)[O-])OCc1ccccc1.[Na+] [AD, N-benzyloxycarbonyl-4-amino-1-butanesulfonic acid sodium salt monohydrate]	+	
Aβ40: Aβ40 peptide given orally or nasally as immunogen (Weiner 2000)		Change in Cerebral Levels: Amyloid Burden ([3]; nasal): −60%; Change in Cerebral Levels: Aβ, total Aβ levels ([3]; nasal): Total: −50%; Change in Cerebral Levels: Amyloid Burden ([3]; oral): 0%; Change in Cerebral Levels: Aβ, total Aβ levels ([3]; oral): Total: 0%
fAβ42: fibrillar Aβ42 used for active immunization		Change in Cerebral Levels: Amyloid Burden ([3]; IP): −95%; Change in Cerebral Levels: Aβ, total Aβ levels ([3]; IP): Total: −80%; Change in Cerebral Levels: Aβ ([4]; Tg2576, IP, Aβ species not specified): −70%; Change in Cerebral Levels: Amyloid Burden ([4]; Tg2576, IP): −85%; Change in Cerebral Levels: Amyloid Burden ([4]; Tg2576, SC): −80%; Change in Cerebral Levels: Amyloid Burden [5]: −50%; Change in Cerebral Levels: Aβ, levels of Aβ40 [6]: 40: +100%;; Change in Cerebral Levels: Aβ, levels of Aβ42 [6]: 42: 0%
COc1ccc(CNCCCS(=O)(=O)O)cc1OC [AX, 3-(3,4-dimethoxybenzylamino)-1-propanesulfonic acid]	+++	
O=S(=O)(O)CCCNC1C2CC3CC(C2)CC1C3 (centres unmarked) [BZ, 3-(2-adamantyl)amino-1-propanesulfonic acid]	+++	
COc1cccc(CNCCCS(=O)(=O)O)c1OC [AZ, 3-(2,3-dimethoxybenzylamino)-1-propanesulfonic acid]	++	
O=S(=O)(O)CCCN1CC=C(CCCc2ccccc2)CC1 [D, 4-(3-phenylpropyl)-1-sulfopropyl-2,3,6-tetrahydropyridine]	+	

Molecule	MS Binding Aβ1-40 [1]	also measured
O=C(Cc1ccccc1)NCCCS(=O)(=O)[O-].[Na+] [AG, 3-[(phenylacetyl)amino]-1-propanesulfonic acid, sodium salt]	+	
O=S(=O)(O)CCCNC12CC3CC(CC(C3)C1)C2 [BW, 3-(1-adamantyl)amino-1-propanesulfonic acid]	+++	
O=S(=O)(O)CCCNCc1ccc(O)c(O)c1 [BC, 3-(3,4-dihydroxybenzylamino)-1-propanesulfonic acid]	+	
CC(C)(C)NCCCS(=O)(=O)O [BX, 3-(t-butyl)amino-1-propanesulfonic acid]	+++	
O=C(NCC(O)CS(=O)(=O)[O-])OCc1ccccc1.[Na+] (centres unmarked) [AC, N-benzyloxycarbonyl-3-amino-2-hydroxy-1-propanesulfonic acid sodium salt monohydrate]	+	
O=S(=O)([O-])CCCNC(=S)NCc1ccccc1.[Na+] [AM, 3-{[(benzylamino)carbonothioyl]amino}-1-propanesulfonic acid sodium salt]	+	
O=S(=O)(O)CCCNC1CCCc2ccccc21 (centres unmarked) [BU, 3-(1,2,3,4-tetrahydro-1-naphthylamino)-1-propanesulfonic acid]	+++	
O=S(=O)(O)CCCNCc1ccc2c(c1)OCO2 [AW, 3-[((1,3-benzodioxol-5-yl)methyl)amino]-1-propanesulfonic acid]	++	
K6Aβ1-30: Aβ peptide immunogen of Sigurdsson 2001		Change in Cerebral Levels: Amyloid Burden ([4]; Tg2576, SC): −85%; Change in Cerebral Levels: Aβ, total Aβ levels ([4]; Tg2576, SC): Total: −55%
CCCC(CO)NCCCS(=O)(=O)O (racemic) [CA, 3-[(dl)-1-hydroxy-2-pentyl]amino-1-propanesulfonic acid]	+++	
CCNCCCS(=O)(=O)O [BV, 3-(ethylamino)-1-propanesulfonic acid]	+++	
O=C(NCCCS(=O)(=O)[O-])NCc1ccccc1.[Na+] [AH, 3-{[(benzylamino)carbonyl]amino}-1-propanesulfonic acid, sodium salt]	+	
CC(C)Cc1ccc(C(C)C(=O)NCCCS(=O)(=O)[O-])cc1.[Na+] (centres unmarked) [AL, 3-{[2-(4-isobutylphenyl)propanoyl]amino}-1-propanesulfonic acid, sodium salt]	++	
NCCNS(=O)(=O)[O-].[Na+] [BI]	+	
COc1cc(CNCCCS(=O)(=O)O)cc(OC)c1OC [AY, 3-(3,4,5-trimethoxybenzylamino)-1-propanesulfonic acid]	++	
NCCCCS(=O)(=O)O [CB, 4-amino-1-butanesulfonic acid]	++	
